Columns and labels:
[1] = Antiproliferative activity against human HCC2998 cells assessed as cell growth at 10^-4 M after 48 hrs by sulforhodamine B assay; type: functional; conditions: HCC 2998, 48 h, read-out: Activity
[2] = Antiproliferative activity against human HOP92 cells assessed as cell growth at 10^-6 M after 48 hrs by sulforhodamine B assay; type: functional; conditions: HOP-92, 48 h, read-out: Activity
[3] = target: CYP2D6 (Homo sapiens, UniProt P10635); test: Inhibition of recombinant human CYP2D6 assessed as remaining enzyme activity using CYP2D6 blue as substrate at 10 uM after 5 mins in presence of NADP by fluorescence plate reader analysis; type: ADME; conditions: recombinant human CYP2D6, probe CYP2D6 blue, read-out: Activity
Sequence of CYP2D6 (P10635 whole entry): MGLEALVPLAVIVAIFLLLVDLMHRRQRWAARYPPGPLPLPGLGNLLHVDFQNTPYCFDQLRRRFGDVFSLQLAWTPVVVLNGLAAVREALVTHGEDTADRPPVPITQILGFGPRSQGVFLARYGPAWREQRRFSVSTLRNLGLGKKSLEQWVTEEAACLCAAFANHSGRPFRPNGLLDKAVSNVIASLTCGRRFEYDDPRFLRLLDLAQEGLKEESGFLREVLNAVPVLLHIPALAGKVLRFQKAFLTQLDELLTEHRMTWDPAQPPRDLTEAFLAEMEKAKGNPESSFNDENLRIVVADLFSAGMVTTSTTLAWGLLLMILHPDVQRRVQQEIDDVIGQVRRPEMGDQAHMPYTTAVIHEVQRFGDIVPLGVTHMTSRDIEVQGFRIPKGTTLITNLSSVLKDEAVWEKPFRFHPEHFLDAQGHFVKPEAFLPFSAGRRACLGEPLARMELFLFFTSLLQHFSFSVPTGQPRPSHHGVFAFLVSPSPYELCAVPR

[4] = system: 786-0; test: Antiproliferative activity against human 786-0 cells assessed as cell growth at 10^-6 M after 48 hrs by sulforhodamine B assay; type: functional; conditions: 786-0, 48 h, read-out: Activity
[5] = Antiproliferative activity against human SF268 cells assessed as cell growth at 10^-7 M after 48 hrs by sulforhodamine B assay; type: functional; conditions: SF-268, 48 h, read-out: Activity
[6] = system: NCI-H226; test: Antiproliferative activity against human NCI-H226 cells assessed as cell growth at 10^-4 M after 48 hrs by sulforhodamine B assay; type: functional; conditions: NCI-H226, 48 h, read-out: Activity
[7] = system: ACHN; test: Antiproliferative activity against human ACHN cells assessed as cell growth at 10^-8 M after 48 hrs by sulforhodamine B assay; type: functional; conditions: read-out: Activity
[8] = system: MCF7; test: Antiproliferative activity against human MCF7 cells assessed as cell growth at 10^-4 M after 48 hrs by sulforhodamine B assay; type: functional; conditions: MCF7, 48 h, read-out: Activity
[9] = Antiproliferative activity against human SF268 cells assessed as cell growth at 10^-6 M after 48 hrs by sulforhodamine B assay; type: functional; conditions: SF-268, 48 h, read-out: Activity
[10] = target: CYP3A4 (Homo sapiens, UniProt P08684); test: Inhibition of recombinant human CYP3A4 assessed as remaining enzyme activity using CYP3A4 blue as substrate at 10 uM after 5 mins in presence of NADP by fluorescence plate reader analysis; type: ADME; conditions: recombinant human CYP3A4, probe CYP3A4 blue, read-out: Activity
Sequence of CYP3A4 (P08684 whole entry): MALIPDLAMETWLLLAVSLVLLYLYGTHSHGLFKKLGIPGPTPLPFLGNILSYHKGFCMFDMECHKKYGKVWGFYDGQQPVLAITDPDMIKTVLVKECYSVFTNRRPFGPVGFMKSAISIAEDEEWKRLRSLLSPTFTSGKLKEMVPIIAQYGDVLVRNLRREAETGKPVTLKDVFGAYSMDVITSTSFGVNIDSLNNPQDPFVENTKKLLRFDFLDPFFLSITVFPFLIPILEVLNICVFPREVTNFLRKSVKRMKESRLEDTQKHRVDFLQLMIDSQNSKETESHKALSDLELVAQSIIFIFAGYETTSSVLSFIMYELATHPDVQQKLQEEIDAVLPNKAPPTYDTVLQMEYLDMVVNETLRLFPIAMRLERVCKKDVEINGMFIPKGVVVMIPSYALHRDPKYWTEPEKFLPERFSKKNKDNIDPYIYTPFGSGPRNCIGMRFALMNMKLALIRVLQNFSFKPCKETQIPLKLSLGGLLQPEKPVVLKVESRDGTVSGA

[11] = system: MDA-MB-435; test: Antiproliferative activity against human MDA-MB-435 cells assessed as growth inhibition after 48 hrs by sulforhodamine B assay; type: functional; conditions: MDA-MB-435, 48 h; for CC50: read-out: LC50 (the source's name)
[12] = Antiproliferative activity against human SNB75 cells assessed as cell growth at 10^-8 M after 48 hrs by sulforhodamine B assay; type: functional; conditions: SNB-75, 48 h, read-out: Activity
[13] = Antiproliferative activity against human TK10 cells assessed as growth inhibition after 48 hrs by sulforhodamine B assay; type: functional; conditions: TK-10, 48 h; for CC50: read-out: LC50 (the source's name)
[14] = Antiproliferative activity against human HCT15 cells assessed as cell growth at 10^-7 M after 48 hrs by sulforhodamine B assay; type: functional; conditions: HCT-15, 48 h, read-out: Activity
[15] = system: HT-29; test: Antiproliferative activity against human HT-29 cells assessed as cell growth at 10^-7 M after 48 hrs by sulforhodamine B assay; type: functional; conditions: HT-29, 48 h, read-out: Activity
[16] = system: EKVX; test: Antiproliferative activity against human EKVX cells assessed as cell growth at 10^-7 M after 48 hrs by sulforhodamine B assay; type: functional; conditions: read-out: Activity
[17] = system: SK-MEL-28; test: Antiproliferative activity against human SK-MEL-28 cells assessed as cell growth at 10^-4 M after 48 hrs by sulforhodamine B assay; type: functional; conditions: SK-MEL-28, 48 h, read-out: Activity
[18] = Antiproliferative activity against human OVCAR3 cells assessed as growth inhibition after 48 hrs by sulforhodamine B assay; type: functional; conditions: OVCAR-3, 48 h
[19] = Antiproliferative activity against human IGROV1 cells assessed as cell growth at 10^-7 M after 48 hrs by sulforhodamine B assay; type: functional; conditions: IGROV-1, 48 h, read-out: Activity
[20] = Antiproliferative activity against human HOP62 cells assessed as cell growth at 10^-4 M after 48 hrs by sulforhodamine B assay; type: functional; conditions: HOP-62, 48 h, read-out: Activity
[21] = system: U-251; test: Antiproliferative activity against human U251 cells assessed as cell growth at 10^-4 M after 48 hrs by sulforhodamine B assay; type: functional; conditions: U-251, 48 h, read-out: Activity
[22] = system: U-251; test: Antiproliferative activity against human U251 cells assessed as cell growth at 10^-8 M after 48 hrs by sulforhodamine B assay; type: functional; conditions: U-251, 48 h, read-out: Activity
[23] = Antiproliferative activity against human Caki1 cells assessed as cell growth at 10^-8 M after 48 hrs by sulforhodamine B assay; type: functional; conditions: CAKI-1, 48 h, read-out: Activity
[24] = Antiproliferative activity against human OVCAR4 cells assessed as cell growth at 10^-6 M after 48 hrs by sulforhodamine B assay; type: functional; conditions: OVCAR-4, 48 h, read-out: Activity
[25] = Antiproliferative activity against human OVCAR4 cells assessed as cell growth at 10^-8 M after 48 hrs by sulforhodamine B assay; type: functional; conditions: OVCAR-4, 48 h, read-out: Activity
[26] = Antiproliferative activity against human RPMI8226 cells assessed as growth inhibition after 48 hrs by sulforhodamine B assay; type: functional; conditions: RPMI-8226, 48 h
[27] = Antiproliferative activity against human RPMI8226 cells assessed as cell growth at 10^-6 M after 48 hrs by sulforhodamine B assay; type: functional; conditions: RPMI-8226, 48 h, read-out: Activity
[28] = system: A498; test: Antiproliferative activity against human A498 cells assessed as growth inhibition after 48 hrs by sulforhodamine B assay; type: functional; conditions: A498, 48 h
[29] = system: A549; test: Antiproliferative activity against human A549/ATCC cells assessed as cell growth at 10^-6 M after 48 hrs by sulforhodamine B assay; type: functional; conditions: A549, 48 h, read-out: Activity
[30] = system: NCI-H23; test: Antiproliferative activity against human NCI-H23 cells assessed as growth inhibition after 48 hrs by sulforhodamine B assay; type: functional; conditions: NCI-H23, 48 h
[31] = system: MDA-MB-468; test: Antiproliferative activity against human MDA-MB-468 cells assessed as cell growth at 10^-7 M after 48 hrs by sulforhodamine B assay; type: functional; conditions: MDA-MB-468, 48 h, read-out: Activity
[32] = system: HT-29; test: Antiproliferative activity against human HT-29 cells assessed as cell growth at 10^-6 M after 48 hrs by sulforhodamine B assay; type: functional; conditions: HT-29, 48 h, read-out: Activity
[33] = Antiproliferative activity against human OVCAR3 cells assessed as cell growth at 10^-4 M after 48 hrs by sulforhodamine B assay; type: functional; conditions: OVCAR-3, 48 h, read-out: Activity
[34] = Antiproliferative activity against human DU145 cells assessed as cell growth at 10^-4 M after 48 hrs by sulforhodamine B assay; type: functional; conditions: DU-145, 48 h, read-out: Activity

CNC(=O)c1cc(Oc2ccc3nc(NC(=O)c4cc(C(F)(F)F)cc(C(F)(F)F)c4)sc3c2)ccn1
growth at 100 µM [1]: -60%
growth at 1 µM [2]: 68%
activity at 5 min, 10 µM [3]: 82.2%
growth at 1 µM [4]: 91%
growth at 0.1 µM [5]: 97%
growth at 100 µM [6]: -59%
growth at 0.01 µM [7]: 104%
growth at 100 µM [8]: -49%
growth at 1 µM [9]: 79%
activity at 5 min, 10 µM [10]: 72.9%
GI50 [11]: 3.28 µM
TGI [11]: 20.4 µM
CC50 [11]: > 100 µM
growth at 0.01 µM [12]: 82%
GI50 [13]: 3.37 µM
TGI [13]: 13.3 µM
CC50 [13]: 74.9 µM
growth at 0.1 µM [14]: 96%
growth at 0.1 µM [15]: 107%
growth at 0.1 µM [16]: 91%
growth at 100 µM [17]: -13%
GI50 [18]: 2.32 µM
LC50 [18]: 32.3 µM
TGI [18]: 6.64 µM
growth at 0.1 µM [19]: 98%
growth at 100 µM [20]: -71%
growth at 100 µM [21]: -73%
growth at 0.01 µM [22]: 98%
growth at 0.01 µM [23]: 101%
growth at 1 µM [24]: 89%
growth at 0.01 µM [25]: 95%
GI50 [26]: 2.42 µM
LC50 [26]: > 100 µM
TGI [26]: > 100 µM
growth at 1 µM [27]: 75%
GI50 [28]: 1.45 µM
LC50 (concentration killing 50% of cells) [28]: 30.9 µM
TGI [28]: 4.51 µM
growth at 1 µM [29]: 105%
GI50 [30]: 3.37 µM
LC50 [30]: > 100 µM
TGI [30]: 17.7 µM
growth at 0.1 µM [31]: 96%
growth at 1 µM [32]: 100%
growth at 100 µM [33]: -79%
growth at 100 µM [34]: -65%

CNC(=O)c1cc(Oc2ccc(NC(=O)Nc3ccc(Cl)c(C(F)(F)F)c3)cc2)ccn1 [SORAFENIB]
TGI [11]: 3.98 µM
CC50 [11]: 10 µM
GI50 [13]: 3.98 µM
TGI [13]: 10 µM
CC50 [13]: 50.1 µM
GI50 [18]: 3.16 µM
TGI [18]: 12.6 µM
TGI [26]: 6.31 µM
GI50 [28]: 2.51 µM
TGI [28]: 6.31 µM
GI50 [30]: 2 µM
TGI [30]: 5.01 µM
